How the values were obtained:
[1] = Ribogreen assay, mRNA encapsulation efficiency of LNP; format: physicochemical; conditions: mRNA-LNP formulation phospholipid:CL4F6:Chol:PEG-DMG 10:50:40:1.0, Fluc mRNA
Experimental: (§1) Ethanol solutions containing each phospholipid, CL4F6, Chol, and PEG2000-dimirystoylglycerol (PEG-DMG) at the molar ratio of 10:50:40:1.0 were prepared at the total lipid concentration of 16 mM. For fluorescent labeling of LNPs, 0.5 mol% of DiI or DiR was added to the above solutions. The firefly luciferase (Fluc)-encoding mRNA (TriLink) was dissolved in a 25 mM acetate buffer (pH 4.0). LNPs were prepared by mixing the lipids in ethanol and RNA in an aqueous solution using an iLiNP device at a total flow rate (TFR) of 0.5 mL/min and a flow rate ratio (FRR) (RNA flow rate/lipid flow rate) of 3. The nitrogen to phosphate (N/P) ratio was adjusted to 6. Syringe pumps (Harvard apparatus) were used to control the flow rate of the solutions. The resulting LNP solutions were then dialyzed for 2 hours or more at 4 °C against phosphate buffered saline without Ca^2+ and Mg^2+ (PBS(-)) using Spectra/Por 4 dialysis membranes (molecular weight cut-off 12,000-14,000 Da, Spectrum Laboratories). The LNP solutions were concentrated by ultrafiltration using an Amicon Ultra-15 unit (MWCO 100 kDa, Millipore) as needed.
(§2) The ζ-average particle size, polydispersity index (PDI), and ζ-potential of the LNPs were measured by means of a Zetasizer Nano ZS ZEN3600 instrument (Malvern Instruments). The encapsulation efficiency and total concentration of mRNA were measured by a Ribogreen assay according to a conventional method.

[2] = Particle size, PDI and ζ-potential of mRNA-LNP (Zetasizer Nano ZS); format: physicochemical; conditions: mRNA-LNP formulation phospholipid:CL4F6:Chol:PEG-DMG 10:50:40:1.0, Fluc mRNA
Experimental: as §1, §2

liver = assay: mRNA introduction ability: luciferase activity in the liver after intravenous Fluc mRNA-LNP; format: in vivo, BALB/c mice; conditions: Figs. 3 and 4, LNP containing the phospholipid, 0.01 mg RNA/kg, livers collected 6 hours later
Experimental: as §1, with “The resulting LNP solutions were then dialyzed for 2 hours or more at 4 °C against phosphate buffered saline without Ca^2+ and Mg^2+ (PBS(-)) using Spectra/Por 4 dialysis membranes (molecular weight cut-off 12,000-14,000 Da, Spectrum Laboratories). The LNP solutions were concentrated by ultrafiltration using an Amicon Ultra-15 unit (MWCO 100 kDa, Millipore) as needed.” left out
The mRNA-LNP formulations prepared in the above item (2) were intravenously administered to BALB/c mice at a dose of 0.01 mg RNA/kg, and the livers were collected by a conventional method 6 hours later. […] The supernatant was collected, and […] was measured by a luminometer (Luminescencer-PSN, ATTO Corporation) using Luciferase Assay System (Promega). The protein concentration was determined using a BCA protein assay kit (Pierce). Fluc activity was expressed as relative light units (RLU) per 1 mg of protein.

[3] = Lipid polymorphism by 31P NMR method (mixtures with POPC); format: physicochemical; conditions: lipid:POPC molar ratio 1:1, 20 mM HEPES pH 7.4, room temperature
Experimental: In order to examine the interaction between DOPE-Cx and PC and characteristics thereof, lipid polymorphism of the lipid suspension was evaluated by a ^31P NMR method. Since the rotational motion of lipid molecules in a lamellar phase which is a planar structure and a (inverted) hexagonal phase which is a tubular structure receives different restrictions respectively, a specific ^31P NMR spectrum is provided by chemical shift anisotropy. Specifically, the lamellar phase produces a broad […] peak, and the (inverted) hexagonal phase produces a broad […] peak.
First, DOPE or DOPE-C8 and 1-palmitoyl-2-oleoyl-sn-glycero-3-phosphocholine (POPC) were mixed at a predetermined ratio in 400 µL of chloroform (total lipid 16 µmol), and the solvent was removed by a rotary evaporator to form a lipid membrane. The lipid membrane was hydrated with 500 µL of 20 mM HEPES buffer (pH 7.4, 130 mM NaCl) at 60°C. Then, the lipid dispersion was transferred to an NMR tube, and a ^31P NMR spectrum at room temperature was measured by a conventional method using an ECX 400P spectrometer (JEOL Ltd.).

mRNA encapsulation rate % ([1]; Table 1) | Number average particle size (nm) ([2]; Table 1) | PDI ([2]; Table 1) | ζ-potential (mV) ([2]; Table 1) | ζ-average particle size (nm) ([2]; Table 1, N/P 6) | mRNA encapsulation rate % ([1]; Table 2) | Number average particle size (nm) ([2]; Table 2) | PDI ([2]; Table 2) | ζ-average particle size (nm) ([2]; Table 2) | ζ-potential (mV) ([2]; Table 2) | Compound | lipid phase by 31P NMR spectrum [3] | further results
– | – | – | – | – | – | – | – | – | – | CCCCCCCC/C=C\CCCCCCCC(=O)OC[C@H](COP(=O)(O)OCCNCCC(=O)OC(CC)CC)OC(=O)CCCCCCC/C=C\CCCCCCCC [DOPE-C3_α2, (R)-2,3-bis(oleoyloxy)propyl (2-((3-oxo-3-(pentan-3-yloxy)propyl)ammonio)ethyl) phosphate] | – | mRNA encapsulation rate % ([1]; Table 3): 97.2%; Number average particle size (nm) ([2]; Table 3): 54 nm; PDI ([2]; Table 3): 0.20; ζ-average particle size (nm) ([2]; Table 3): 91 nm; ζ-potential (mV) ([2]; Table 3): -10.5 mV
– | – | – | – | – | – | – | – | – | – | CCCCCCCC/C=C\CCCCCCCC(=O)OC[C@H](COP(=O)(O)OCCNCCC(=O)OC(CCC)CCC)OC(=O)CCCCCCC/C=C\CCCCCCCC [DOPE-C4_α3, (R)-2,3-bis(oleoyloxy)propyl (2-((3-(heptan-4-yloxy)-3-oxopropyl)ammonio)ethyl) phosphate] | – | mRNA encapsulation rate % ([1]; Table 3): 97.1%; Number average particle size (nm) ([2]; Table 3): 52 nm; PDI ([2]; Table 3): 0.21; ζ-average particle size (nm) ([2]; Table 3): 91 nm; ζ-potential (mV) ([2]; Table 3): -12.0 mV
– | – | – | – | – | 95.9% | 60 nm | 0.21 | 94 nm | -6.4 mV | CCCCCCCC/C=C\CCCCCCCC(=O)OC[C@H](COP(=O)(O)OCCNCCC(=O)OCC(C)CCC)OC(=O)CCCCCCC/C=C\CCCCCCCC (stereo partly drawn) [DOPE-C5_β1, (R)-2,3-bis(oleoyloxy)propyl (2-((3-((2-methylpentyl)oxy)-3-oxopropyl)ammonio)ethyl) phosphate] | – | –
91.5% | 59 nm | 0.15 | -1.4 mV | 86 nm | – | – | – | – | – | CCCCCCCC/C=C\CCCCCCCC(=O)OC[C@H](COP(=O)(O)OCCNCCC(=O)OCCCCCC)OC(=O)CCCCCCC/C=C\CCCCCCCC [DOPE-C6, (R)-2,3-bis(oleoyloxy)propyl (2-((3-(hexyloxy)-3-oxopropyl)ammonio)ethyl) phosphate] | – | –
– | – | – | – | – | 95.7% | 73 nm | 0.07 | 94 nm | -5.0 mV | CCCCCCCC/C=C\CCCCCCCC(=O)OC[C@H](COP(=O)(O)OCCNCCC(=O)OCC(CC)CCCC)OC(=O)CCCCCCC/C=C\CCCCCCCC (stereo partly drawn) [DOPE-C6_β2, (R)-2,3-bis(oleoyloxy)propyl (2-((3-((2-ethylhexyl)oxy)-3-oxopropyl)ammonio)ethyl) phosphate] | – | luciferase activity in the liver (liver): highest activity
– | – | – | – | – | 96.0% | 61 nm | 0.08 | 79 nm | -9.6 mV | CCCCCCCC/C=C\CCCCCCCC(=O)OC[C@H](COP(=O)(O)OCCNCCC(=O)OCC(CCC)CCCCC)OC(=O)CCCCCCC/C=C\CCCCCCCC (stereo partly drawn) [DOPE-C7_β3, (R)-2,3-bis(oleoyloxy)propyl (2-((3-oxo-3-((2-propylheptyl)oxy)propyl)ammonio)ethyl) phosphate] | the ratio derived from the inverted hexagonal phase increased | –
– | – | – | – | – | 96.3% | 71 nm | 0.21 | 112 nm | -5.8 mV | CCCCCCCC/C=C\CCCCCCCC(=O)OC[C@H](COP(=O)(O)OCCNCCC(=O)OCC(CCCC)CCCCCC)OC(=O)CCCCCCC/C=C\CCCCCCCC (stereo partly drawn) [DOPE-C8_β4, (R)-2,3-bis(oleoyloxy)propyl (2-((3-((2-butyloctyl)oxy)-3-oxopropyl)ammonio)ethyl) phosphate] | the ratio derived from the inverted hexagonal phase increased | –
93.1% | 48 nm | 0.18 | -7.0 mV | 82 nm | – | – | – | – | – | CCCCCCCC/C=C\CCCCCCCC(=O)OC[C@H](COP(=O)(O)OCCNCCC(=O)OCCCCCCCCCC)OC(=O)CCCCCCC/C=C\CCCCCCCC [DOPE-C10, (R)-2,3-bis(oleoyloxy)propyl (2-((3-(decyloxy)-3-oxopropyl)ammonio)ethyl) phosphate] | the ratio derived from the inverted hexagonal phase increased | –
94.2% | 59 nm | 0.25 | -6.3 mV | 100 nm | – | – | – | – | – | CCCCCCCC/C=C\CCCCCCCC(=O)OC[C@H](COP(=O)(O)OCCNCCC(=O)OCCCCCCCCCCCC)OC(=O)CCCCCCC/C=C\CCCCCCCC [DOPE-C12, (R)-2,3-bis(oleoyloxy)propyl (2-((3-(dodecyloxy)-3-oxopropyl)ammonio)ethyl) phosphate] | the ratio derived from the inverted hexagonal phase increased | –
93.9% | 56 nm | 0.18 | -2.9 mV | 81 nm | – | – | – | – | – | CCCCCCCC/C=C\CCCCCCCCOC(=O)CCNCCOP(=O)(O)OC[C@@H](COC(=O)CCCCCCC/C=C\CCCCCCCC)OC(=O)CCCCCCC/C=C\CCCCCCCC [DOPE-C18:1, (R)-2,3-bis(oleoyloxy)propyl (2-((3-(((Z)-octadeca-9-ene-1-yl)oxy)-3-oxopropyl)ammonio)ethyl) phosphate] | the ratio derived from the inverted hexagonal phase increased | –
– | – | – | – | – | 95.9% | 65 nm | 0.07 | 85 nm | -6.1 mV | CCCCCCCC/C=C\CCCCCCCC(=O)OC[C@H](COP(=O)(O)OCCNCCC(=O)OCCC(C)CCC=C(C)C)OC(=O)CCCCCCC/C=C\CCCCCCCC (stereo partly drawn) [DOPE-Cit, (R)-2,3-bis(oleoyloxy)propyl (2-((3-((3,7-dimethyloct-6-en-1-yl)oxy)-3-oxopropyl)ammonio)ethyl) phosphate] | – | –
95.7% | 56 nm | 0.08 | -3.6 mV | 75 nm | – | – | – | – | – | CCCCCCCCCCCCCCCCCC(=O)OC[C@H](COP(=O)([O-])OCC[N+](C)(C)C)OC(=O)CCCCCCCCCCCCCCCCC [DSPC, 1,2-Distearoyl-sn-glycero-3-phosphocholine, reference compound] | – | –

Compound | mRNA encapsulation rate % ([1]; Table 1) | Number average particle size (nm) ([2]; Table 1) | PDI ([2]; Table 1) | ζ-potential (mV) ([2]; Table 1) | ζ-average particle size (nm) ([2]; Table 1, N/P 6) | mRNA encapsulation rate % ([1]; Table 2) | Number average particle size (nm) ([2]; Table 2) | PDI ([2]; Table 2) | ζ-average particle size (nm) ([2]; Table 2) | ζ-potential (mV) ([2]; Table 2) | lipid phase by 31P NMR spectrum [3] | further results
CCCCCCCC/C=C\CCCCCCCC(=O)OC[C@H](COP(=O)(O)OCCNCCC(=O)OCCCC)OC(=O)CCCCCCC/C=C\CCCCCCCC [DOPE-C4, (R)-2,3-bis(oleoyloxy)propyl (2-((3-butoxy-3-oxopropyl)ammonio)ethyl) phosphate] | 91.2% | 58 nm | 0.17 | -5.0 mV | 87 nm | – | – | – | – | – | – | –

— patent EP4796551A1, “ZWITTERIONIC PHOSPHOLIPID COMPOUND AND LIPID NANOPARTICLE CONTAINING THE SAME” (National University Corporation Hokkaido University, priority 2023, dated 2025)
